Molecular target: T1, human GPR84 receptor (Homo sapiens, UniProt Q9NQS5)
T1 construct: host or cells: HEK293, transient transfection
Experiment: Gαi biosensor BRET assay in HEK293 cells (antagonism of ZQ-16)
Assay type: cell-based
Details: for IC50: HEK293 cells, antagonism of 200 nmol/L ZQ-16; for inhibition at 10 µM: HEK293, single concentration 10 μM (designated F); for inhibition at 2 µM: HEK293, single concentration 2 μM (designated A)
Method in brief: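 HEK293 cells transiently expressing human GPR84, Gαi2-Rluc8, GFP10-Gγ2 and Gβ1, in Tyrode's buffer pH 7.5. Compounds preincubated 5 min at 37° C, then 200 nmol/L ZQ-16 for 5 min at room temperature; coelenterazine 400A 5 μmol/L. BRET2 acceptor/donor ratio, background- and vehicle-corrected net BRET.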

T1 sequence (Q9NQS5 whole entry): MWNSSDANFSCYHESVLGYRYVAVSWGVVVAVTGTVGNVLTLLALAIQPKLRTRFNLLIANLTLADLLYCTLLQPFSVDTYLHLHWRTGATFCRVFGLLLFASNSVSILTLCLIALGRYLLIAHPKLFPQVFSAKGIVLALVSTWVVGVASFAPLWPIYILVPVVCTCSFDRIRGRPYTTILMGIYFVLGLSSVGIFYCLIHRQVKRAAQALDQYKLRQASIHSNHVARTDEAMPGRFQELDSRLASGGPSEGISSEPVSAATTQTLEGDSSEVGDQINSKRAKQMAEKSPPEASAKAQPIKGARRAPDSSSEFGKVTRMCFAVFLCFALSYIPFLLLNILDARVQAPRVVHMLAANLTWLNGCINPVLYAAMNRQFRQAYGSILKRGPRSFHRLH

| Structure (SMILES) | IC50 [nM] | inhibition at 10 µM [%] | other results |
| --- | --- | --- | --- |
| CC1(C)COC(Cn2cc(-c3ncc(C#CCNCc4ccccn4)cc3OC3CC3)nn2)OC1 [Compound I-772] | ≤ 300 | – | – |
| C[C@@H]1Cc2oc(C(=O)NCc3cnc(C4CC4)cn3)c(C(F)(F)F)c2-c2nn(C[C@H]3COCCO3)cc21 [Compound I-775] | ≤ 300 | – | – |
| CC1(C)COC(Cn2cc(-c3ncc(C#CCN4CC(C)(C)C4)cc3Cl)nn2)OC1 [Compound I-777] | 1000 to 3000 | – | – |
| CN(C)c1cc(N2CC(C)(CO)C2)c(F)cc1-c1cn(CC2OCC3(CC3)CO2)nn1 [Compound I-784] | ≤ 300 | – | – |
| C(#CC1CC1)c1cnc(-c2cn(CC3OCC4(CC4)CO3)nn2)c(OC2CC2)c1 [Compound I-785] | ≤ 300 | – | inhibition at 2 µM: > 75% |
| CN(C)c1cc(N2CC(C)(CO)C2)c(F)cc1-c1cn(CC2OCC3(CCC3)O2)nn1 (stereo not drawn) [Compound I-786] | 300 to 1000 | > 75 | – |
| C[C@@H]1Cc2oc(C(=O)NC[C@@H]3COCCO3)c(C(F)(F)F)c2-c2nn(CC3CCN(C(=O)C4CC4)CC3)cc21 [Compound I-787] | 300 to 1000 | ≤ 25 | – |
| CC1(C)COC(Cn2cc(-c3ccc(C#CCN4CC(C)(C)C4)cc3OC3CC3)nn2)OC1 [Compound I-788] | ≤ 300 | > 75 | – |
| CCc1cc(C#CCN2CC(C)(CO)C2)cnc1-c1cn(CC2OCC(C)(C)CO2)nn1 [Compound I-789] | 300 to 1000 | 50 to 75 | – |
| Cc1ccccc1C#Cc1cn(CC2OCC(C)(C)CO2)nn1 [Compound I-791] | – | – | inhibition at 2 µM: > 75% |
| CN(c1ccc(C#N)cc1)c1cn(CC2OCC(C)(C)CO2)nn1 [Compound I-793, 4-((1-((5,5-dimethyl-1,3-dioxan-2-yl)methyl)-1H-1,2,3-triazol-4-yl)(methyl)amino)benzonitrile] | – | – | inhibition at 2 µM: > 75% |
| CC1(C)CN(CC#Cc2cnc(-c3cn(CC4OCC5(CC5)CO4)nn3)c(OC3CC3)c2)C1 [Compound I-794] | ≤ 300 | – | inhibition at 2 µM: > 75% |
| Cc1cc(N2CCN(Cc3ccccn3)CC2)ccc1-c1cn(CC2OCC3(CC3)CO2)cn1 [Compound I-795] | ≤ 300 | 25 to 50 | – |
| CC1(CO)CN(c2ccc(-c3cn(CC4OCC5(CCC5)O4)nn3)c(CC(F)(F)F)c2)C1 (stereo not drawn) [Compound I-796] | ≤ 300 | – | – |
| CC(C)Oc1cc(C#CC2CC2)cnc1-c1cn(CC2OCC3(CCC3)O2)nn1 (stereo not drawn) [Compound I-797] | ≤ 300 | > 75 | – |
| C(#CC1CC1)c1ccc(-c2cn(CC3OCC4(CCC4)O3)nn2)c(OC2CC2)c1 (stereo not drawn) [Compound I-798] | – | > 75 | – |
| CC1(C)COC(Cn2cc(-c3ncc(C#CCN4CC(C)(CO)C4)cc3OC3CC3)nn2)OC1 [Compound I-799] | ≤ 300 | > 75 | – |
| CCN(CC)c1cc(N2CC(C)(CO)C2)ccc1-c1cn(CC2OCC3(CC3)CO2)nn1 [Compound I-800] | 300 to 1000 | 50 to 75 | – |
| CCN(CC)c1cc(N2CC(C)(CO)C2)c(F)cc1-c1cn(CC2OCC3(CC3)CO2)nn1 [Compound I-801] | ≤ 300 | – | inhibition at 2 µM: > 75% |
| Cc1cc(N2CC(C)(CO)C2)c(F)cc1-c1cn(C[C@H]2CCCCO2)nn1 [Compound I-804] | 300 to 1000 | – | inhibition at 1 µM (HEK293, single concentration 1 μM (designated A°)): 25 to 50% |
| Cc1cc(N2CC(C)(CO)C2)c(F)cc1-c1cn(C[C@@H]2CCCCO2)nn1 [Compound I-805] | – | – | inhibition at 2 µM: > 75% |
| Clc1cc(C#CC2CC2)cnc1-c1cn(CC2OCC3(CCC3)O2)nn1 (stereo not drawn) [Compound I-806] | – | – | inhibition at 2 µM: > 75% |
| CC1(CO)CN(c2cnc(-c3cn(CC4OCC5(CCC5)O4)nn3)c(Cl)c2)C1 (stereo not drawn) [Compound I-807] | – | > 75 | – |

| Structure (SMILES) | IC50 [nM] | inhibition at 10 µM [%] | other results |
| --- | --- | --- | --- |
| OCC#Cc1ccc(-c2cn(CC3OCC4(CCC4)O3)nn2)c(CC(F)(F)F)c1 (stereo not drawn) [Compound I-808] | 300 to 1000 | – | inhibition at 2 µM: > 75% |
| CC(C)Oc1cc(N2CC(C)(CO)C2)cnc1-c1cn(CC2OCC3(CCC3)O2)nn1 (stereo not drawn) [Compound I-809] | – | – | inhibition at 2 µM: > 75% |
| CC1(CO)CN(c2ccc(-c3cn(CC4OCC5(CCC5)O4)nn3)c(OC3CC3)c2)C1 (stereo not drawn) [Compound I-810] | 300 to 1000 | > 75 | – |
| FC(F)(F)COc1cc(C#CC2CC2)cnc1-c1cn(CC2OCC3(CCC3)O2)nn1 (stereo not drawn) [Compound I-815] | – | – | inhibition at 2 µM: > 75% |
| CC1(CO)CN(c2cnc(-c3cn(CC4OCC5(CCC5)O4)nn3)c(OCC(F)(F)F)c2)C1 (stereo not drawn) [Compound I-816] | – | > 75 | – |
| CC1(C)COC(Cn2cc(-c3c(Cl)cc(C#CC4CC4)c[n+]3[O-])nn2)OC1 [Compound I-817] | – | > 75 | – |
| CC1(C)CN(CC#Cc2cnc(-c3cn(C[C@H]4CCCCO4)nn3)c(CC(F)(F)F)c2)C1 [Compound I-818] | – | > 75 | – |
| CCOCC#Cc1cnc(-c2cn(CC3OCC(C)(C)CO3)nn2)c(OC2CC2)c1 [Compound I-819] | ≤ 300 | > 75 | – |
| Cc1cc(C#CCNC2CC2)ccc1-c1cn(CC2OCC(C)(C)CO2)cn1 [Compound I-820] | 300 to 1000 | – | inhibition at 2 µM: > 75% |
| CN(C)c1cc(C#CCN2CC(C)(C)C2)c(F)cc1-c1cn(CC2OCC3(CCC3)O2)nn1 (stereo not drawn) [Compound I-821] | – | > 75 | – |
| FC(F)(F)Cc1cc(C#CC2CC2)cnc1-c1cn(C[C@H]2CCCCO2)nn1 [Compound I-822] | ≤ 300 | – | inhibition at 2 µM: > 75% |
| Clc1cc(C#CC2CC2)cnc1-c1cn(C[C@H]2CCCCO2)nn1 [Compound I-823] | – | ≤ 25 | – |
| CC(=O)c1ccc(C)c(N(C)c2cn(CC3OCC(C)(C)CO3)nn2)c1 [Compound I-825] | – | – | inhibition at 2 µM: > 75% |
| Cc1cc(C#CCN)cnc1-c1cn(CC2CCCCO2)nn1 (stereo not drawn) [Compound I-826, 3-(5-methyl-6-(1-((tetrahydro-2H-pyran-2-yl)methyl)-1H-1,2,3-triazol-4-yl)pyridin-3-yl)prop-2-yn-1-amine] | – | > 75 | – |
| CC1(C)COC(Cn2cc(-c3cn(CC4OCC(C)(C)CO4)nn3)nn2)OC1 [Compound I-827] | – | 50 to 75 | – |
| Cc1cc(N2CCN(C(C)c3ccccn3)CC2)ccc1-c1cn(CC2OCC(C)(C)CO2)cn1 (stereo not drawn) [Compound I-828] | 300 to 1000 | 50 to 75 | – |
| CC1(C)COC(Cn2cnc(-c3ncc(C#CC4CC4)cc3OC3CC3)c2)OC1 [Compound I-831] | ≤ 300 | – | inhibition at 2 µM: > 75% |
| CC1(C)COC(Cn2cncc2-c2ncc(C#CC3CC3)cc2OC2CC2)OC1 [Compound I-832] | – | ≤ 25 | – |
| COCC#Cc1cnc(-c2cn(CC3OCC4(CC4)CO3)nn2)c(OC2CC2)c1 [Compound I-833] | ≤ 300 | ≤ 25 | – |
| Cc1cc(C#CCN2CC(C)(C)C2)cnc1-c1nnn(CC2OCC(C)(C)CO2)n1 [Compound I-835] | – | ≤ 25 | – |
| Cc1cc(C#CCN2CC(C)(C)C2)cnc1-c1nnnn1CC1OCC(C)(C)CO1 [Compound I-836] | – | 50 to 75 | – |
| COCC#Cc1cnc(-c2cn(CC3OCC(C)(C)CO3)nn2)c(OC(C)C)c1 [Compound I-837] | – | ≤ 25 | – |
| CCOCC#Cc1cnc(-c2cn(CC3OCC(C)(C)CO3)nn2)c(OC(C)C)c1 [Compound I-838] | – | 50 to 75 | – |

Now from value to compound, other results behind:

| IC50 [nM] | inhibition at 10 µM [%] | Structure (SMILES) | other results |
| --- | --- | --- | --- |
| ≤ 300 | – | CC1(C)COC(Cn2cc(-c3ncc(C#CCO)cc3OC3CC3)nn2)OC1 [Compound I-771] | – |
| 300 to 1000 | – | Cc1ccc(C#CC2CC2)cc1Oc1cn(CC2OCC(C)(C)CO2)nn1 [Compound I-773] | – |
| 300 to 1000 | > 75 | CCc1cc(C#CCOC2CC2)ccc1-c1cn(CC2OCC(C)(C)CO2)nn1 [Compound I-780] | – |
| – | > 75 | Cc1ccc(C#CC2CC2)cc1Sc1cn(CC2OCC(C)(C)CO2)nn1 [Compound I-781, 4-((5-(cyclopropylethynyl)-2-methylphenyl)thio)-1-((5,5-dimethyl-1,3-dioxan-2-yl)methyl)-1H-1,2,3-triazole] | – |
| – | ≤ 25 | Cc1ccc(C#CC2CC2)cc1S(=O)(=O)c1cn(CC2OCC(C)(C)CO2)nn1 [Compound I-783, 4-((5-(cyclopropylethynyl)-2-methylphenyl)sulfonyl)-1-((5,5-dimethyl-1,3-dioxan-2-yl)methyl)-1H-1,2,3-triazole] | – |
| – | ≤ 25 | Cc1cccc(C#Cc2cn(CC3OCC(C)(C)CO3)nn2)c1 [Compound I-790, 1-((5,5-dimethyl-1,3-dioxan-2-yl)methyl)-4-(m-tolylethynyl)-1H-1,2,3-triazole] | – |
| 300 to 1000 | – | CC(=O)N(c1cn(CC2OCC(C)(C)CO2)nn1)c1cc(C#CC2CC2)ccc1C [Compound I-792, N-(5-(cyclopropylethynyl)-2-methylphenyl)-N-(1-((5,5-dimethyl-1,3-dioxan-2-yl)methyl)-1H-1,2,3-triazol-4-yl)acetamide] | inhibition at 2 µM: > 75% |
| – | > 75 | CN(c1cccc(C#N)c1)c1cn(CC2OCC(C)(C)CO2)nn1 [Compound I-802] | – |
| – | > 75 | CN(c1cn(CC2OCC(C)(C)CO2)nn1)c1cc(C#N)ccc1Cl [Compound I-803] | – |
| – | ≤ 25 | Cc1ccc(C#N)cc1N(C)c1cn(CC2OCC(C)(C)CO2)nn1 [Compound I-811] | – |
| – | ≤ 25 | COc1cccc(N(C)c2cn(CC3OCC(C)(C)CO3)nn2)c1 [Compound I-812] | – |
| – | > 75 | COc1ccc(Cl)c(N(C)c2cn(CC3OCC(C)(C)CO3)nn2)c1 [Compound I-813] | – |
| – | ≤ 25 | COc1ccc(C)c(N(C)c2cn(CC3OCC(C)(C)CO3)nn2)c1 [Compound I-814] | – |
| – | ≤ 25 | CN(c1cccc(C#CC2CC2)c1)c1cn(CC2OCC(C)(C)CO2)nn1 [Compound I-824] | – |
| ≤ 300 | > 75 | COCC#Cc1ccc(-c2cn(CC3OCC(C)(C)CO3)nn2)c(N(C)C)c1 [Compound I-829] | – |
| – | 50 to 75 | Cc1ccc(C(C)(C)O)cc1N(C)c1cn(CC2OCC(C)(C)CO2)nn1 [Compound I-830] | – |
| ≤ 300 | ≤ 25 | CCOc1cc(C#CCOC)cnc1-c1cn(CC2OCC(C)(C)CO2)nn1 [Compound I-834] | – |
